Assay results published in ChEMBL document CHEMBL3885861, “Open TG-GATES”.

Species: Rattus norvegicus
Test: Open TG-GATES - Regimen: Daily Repeat
Type: toxicity, organism-based, Sprague-Dawley
Parameters: regimen Daily Repeat, gender Male, age 6 weeks
Conditions: in vivo, po, route gavage; for gamma-GTP / ALP / ALT / AST / BUN / CRE / DBIL / GLC / IP / K / LDH / Na / PL / RALB / TBIL / TC / TG / TP: tissue Plasma; for APTT / Bas / Eos / Fbg / Hb / Ht / Lym / MCH / MCHC / MCV / Mono / Neu / PT / Plat / RBC / Ret / WBC: tissue Blood; for KIDNEY_L / KIDNEY_R / KIDNEY_TOTAL: tissue Kidney; for LIVER: tissue Liver
[1] = 450 mg/kg, 72 h, dose level High, time 3 day
[2] = 450 mg/kg, […], dose level High, time 7 day
[3] = 450 mg/kg, […], dose level High, time 14 day
[4] = 450 mg/kg, […], dose level High, time 28 day

CC(CCc1ccccc1)NCC(O)c1ccc(O)c(C(N)=O)c1 (centres undefined) [LABETALOL]
gamma-GTP (150 mg/kg, […], dose level Middle, time 28 day): 1.2 IU/L | TERMINAL_BW [1]: 240.1 g | APTT [1]: 17 s | Bas [1]: 0% | Eos [1]: 0.8% | Fbg [1]: 275.8 mg/dL | Hb [1]: 13.6 g/dL | Ht [1]: 39.8% | Lym [1]: 79% | MCH [1]: 21.2 pg | MCHC [1]: 34.2% | MCV [1]: 61.9 fL | Mono [1]: 2.4% | Neu [1]: 17.2% | PT [1]: 12.9 s | Plat [1]: 114.3 x10_4/uL | RBC [1]: 644 x10_4/ul | Ret [1]: 6.4% | WBC [1]: 89.1 x10_2/uL | KIDNEY_L [1]: 1 g | KIDNEY_R [1]: 1 g | KIDNEY_TOTAL [1]: 2 g | LIVER [1]: 9.9 g | ALP [1]: 1714 IU/L | ALT [1]: 45.4 IU/L | AST [1]: 61.8 IU/L | BUN [1]: 16.4 mg/dL | CRE [1]: 0.2 mg/dL | DBIL [1]: 0.014 mg/dL | GLC [1]: 162.8 mg/dL | IP [1]: 7.1 mg/dL | K [1]: 4.4 meq/L | LDH [1]: 45.2 IU/L | Na [1]: 142.6 meq/L | PL [1]: 142.8 mg/dL | RALB [1]: 2.6 g/dL | TBIL [1]: 0.038 mg/dL | TC [1]: 88 mg/dL | TG [1]: 43.6 mg/dL | TP [1]: 5.6 g/dL | gamma-GTP [1]: 1 IU/L | TERMINAL_BW [2]: 269.7 g | TERMINAL_BW [3]: 293.4 g | TERMINAL_BW [4]: 333.5 g | APTT [2]: 17.5 s | Bas [2]: 0% | Eos [2]: 0.8% | Fbg [2]: 266.4 mg/dL | Hb [2]: 14.1 g/dL | Ht [2]: 40.5% | Lym [2]: 77.8% | MCH [2]: 21.1 pg | MCHC [2]: 34.7% | MCV [2]: 60.7 fL | Mono [2]: 3.4% | Neu [2]: 17.4% | PT [2]: 13.5 s | Plat [2]: 97.4 x10_4/uL | RBC [2]: 667.6 x10_4/ul | Ret [2]: 4% | WBC [2]: 80.1 x10_2/uL | APTT [3]: 18.2 s | Bas [3]: 0% | Eos [3]: 1% | Fbg [3]: 278 mg/dL | Hb [3]: 15.3 g/dL | Ht [3]: 44.1% | Lym [3]: 78.3% | MCH [3]: 20.6 pg | MCHC [3]: 34.8% | MCV [3]: 59.1 fL | Mono [3]: 2% | Neu [3]: 17.7% | PT [3]: 13.6 s | Plat [3]: 94.8 x10_4/uL | RBC [3]: 745 x10_4/ul | Ret [3]: 2.9% | WBC [3]: 85.7 x10_2/uL | APTT [4]: 19.7 s | Bas [4]: 0% | Eos [4]: 1% | Fbg [4]: 228.5 mg/dL | Hb [4]: 15.9 g/dL | Ht [4]: 44.5% | Lym [4]: 78.5% | MCH [4]: 19.5 pg | MCHC [4]: 35.6% | MCV [4]: 54.7 fL | Mono [4]: 2% | Neu [4]: 18% | PT [4]: 14.7 s | Plat [4]: 79 x10_4/uL | RBC [4]: 813.5 x10_4/ul | Ret [4]: 1% | WBC [4]: 104.3 x10_2/uL | KIDNEY_L [2]: 1.2 g | KIDNEY_R [2]: 1.1 g | KIDNEY_TOTAL [2]: 2.3 g | KIDNEY_L [3]: 1.1 g | KIDNEY_R [3]: 1.2 g | KIDNEY_TOTAL [3]: 2.3 g | KIDNEY_L [4]: 1.4 g | KIDNEY_R [4]: 1.3 g | KIDNEY_TOTAL [4]: 2.6 g | LIVER [2]: 11 g | LIVER [3]: 10.8 g | LIVER [4]: 11.6 g | ALP [2]: 1741.8 IU/L | ALT [2]: 55.8 IU/L | AST [2]: 65.8 IU/L | BUN [2]: 16.2 mg/dL | CRE [2]: 0.2 mg/dL | DBIL [2]: 0.008 mg/dL | GLC [2]: 162.2 mg/dL | K [2]: 4.3 meq/L | LDH [2]: 50 IU/L | Na [2]: 142.4 meq/L | PL [2]: 149.8 mg/dL | RALB [2]: 2.6 g/dL | TBIL [2]: 0.03 mg/dL | TC [2]: 91.2 mg/dL | TG [2]: 37.2 mg/dL | TP [2]: 5.7 g/dL | gamma-GTP [2]: 1.2 IU/L | ALP [3]: 1433.3 IU/L | ALT [3]: 45.3 IU/L | AST [3]: 61.3 IU/L | BUN [3]: 18.7 mg/dL | CRE [3]: 0.3 mg/dL | DBIL [3]: 0.01 mg/dL | GLC [3]: 176.7 mg/dL | K [3]: 3.8 meq/L | LDH [3]: 47.7 IU/L | Na [3]: 145.3 meq/L | PL [3]: 138 mg/dL | RALB [3]: 2.7 g/dL | TBIL [3]: 0.0267 mg/dL | TC [3]: 79.3 mg/dL | TG [3]: 38.3 mg/dL | TP [3]: 6 g/dL | gamma-GTP [3]: 1.3 IU/L | ALP [4]: 1187.5 IU/L | ALT [4]: 54 IU/L | AST [4]: 70 IU/L | BUN [4]: 25 mg/dL | CRE [4]: 0.3 mg/dL | DBIL [4]: 0.02 mg/dL | GLC [4]: 159.5 mg/dL | IP [4]: 7.8 mg/dL | K [4]: 4.2 meq/L | LDH [4]: 38.5 IU/L | Na [4]: 141 meq/L | PL [4]: 125.5 mg/dL | RALB [4]: 2.7 g/dL | TBIL [4]: 0.04 mg/dL | TC [4]: 62 mg/dL | TG [4]: 61.5 mg/dL | TP [4]: 6 g/dL | gamma-GTP [4]: 2 IU/L
